compound,measurement,setting,value
CC(=CC(C)=Nc1c(C)cccc1C)Nc1c(C)cccc1C,solubility (mole fraction),"in THF, 273.15 K",0.345
same,solubility (mole fraction),"in THF, 278.15 K",0.362
same,solubility (mole fraction),"in THF, 283.15 K",0.381
same,solubility (mole fraction),"in THF, 288.15 K",0.403
same,solubility (mole fraction),"in THF, 293.15 K",0.429
same,solubility (mole fraction),"in THF, 298.15 K",0.456
same,solubility (mole fraction),"in THF, 303.15 K",0.487
same,solubility (mole fraction),"in diethyl ether, 273.15 K",0.188
same,solubility (mole fraction),"in diethyl ether, 278.15 K",0.204
same,solubility (mole fraction),"in diethyl ether, 283.15 K",0.22
same,solubility (mole fraction),"in diethyl ether, 288.15 K",0.239
same,solubility (mole fraction),"in diethyl ether, 293.15 K",0.265
same,solubility (mole fraction),"in diethyl ether, 298.15 K",0.295
same,solubility (mole fraction),"in diethyl ether, 303.15 K",0.334
same,solubility (mole fraction),"in ethanol, 273.15 K",0.0093
same,solubility (mole fraction),"in ethanol, 278.15 K",0.0099
same,solubility (mole fraction),"in ethanol, 283.15 K",0.0107
same,solubility (mole fraction),"in ethanol, 288.15 K",0.0117
same,solubility (mole fraction),"in ethanol, 293.15 K",0.0129
same,solubility (mole fraction),"in ethanol, 298.15 K",0.0143
same,solubility (mole fraction),"in ethanol, 303.15 K",0.0166
same,solubility (mole fraction),"in methanol, 273.15 K",0.0015
same,solubility (mole fraction),"in methanol, 278.15 K",0.0017
same,solubility (mole fraction),"in methanol, 283.15 K",0.002
same,solubility (mole fraction),"in methanol, 288.15 K",0.0024
same,solubility (mole fraction),"in methanol, 293.15 K",0.0029
same,solubility (mole fraction),"in methanol, 298.15 K",0.0033
same,solubility (mole fraction),"in methanol, 303.15 K",0.0041
same,solubility (mole fraction),"in n-hexane, 273.15 K",0.167
same,solubility (mole fraction),"in n-hexane, 278.15 K",0.194
same,solubility (mole fraction),"in n-hexane, 283.15 K",0.223
same,solubility (mole fraction),"in n-hexane, 288.15 K",0.253
same,solubility (mole fraction),"in n-hexane, 293.15 K",0.285
same,solubility (mole fraction),"in n-hexane, 298.15 K",0.316
same,solubility (mole fraction),"in n-hexane, 303.15 K",0.347
same,solubility (mole fraction),"in toluene, 273.15 K",0.266
same,solubility (mole fraction),"in toluene, 278.15 K",0.296
same,solubility (mole fraction),"in toluene, 283.15 K",0.324
same,solubility (mole fraction),"in toluene, 288.15 K",0.347
same,solubility (mole fraction),"in toluene, 293.15 K",0.374
same,solubility (mole fraction),"in toluene, 298.15 K",0.433
same,solubility (mole fraction),"in toluene, 303.15 K",0.503

# Reference: BigSolDB 2.1
